Tests used:
Assay type in all cases: cell-based, human
T cells (patient PBMCs) = test: T-cell proliferation assay (3H-thymidine) of patient PBMC/T cells with hTERT peptides or transfected DC; settings: for response of clinical non-responders: GV1001-vaccinated
Experimental: FIG. 1 is a bar graph summarising hTERT T-cell responses detected in pancreas cancer patient vaccinated with DC transfected with hTERT mRNA. In samples from various time points throughout a vaccination schedule, T-cell responses against 24 overlapping hTERT 15-mer peptides were detected. Proliferation in response to peptide-loaded PBMC was measured by ^3H-thymidine incorporation. A stimulation index of >2 is considered an immune response.
Peripheral blood mononuclear cells (PBMCs) were obtained prior to the four standard vaccinations, after 5 weeks and after 12 weeks. PBMCs were also obtained before each monthly booster vaccination. The PBMCs were isolated and frozen as previously described (Kyte et al, 2005). Thawed PBMCs were stimulated once in vitro with tDCs (not with mockDCs) and cultured and then tested in T cell proliferation assays (^3H Thymidine) as previously described (Kyte et al 2006). The T cells were tested in triplicates. Irradiated tDCs and mock-transfected DC controls (mockDCs) were used or PBMC with or without hTERT peptide as APCs. Negative controls with T cells only were included.
PBMCs from various time points were stimulated with an overlapping hTERT 15-mer peptide library or a 30-mer hTERT peptide, all from ProImmune and then tested in proliferation assays as above using irradiated PBMCs as APCs as described in (Bernhardt et al 2006).
T-cell responses to a hTERT peptide library (including the polypeptides from Table 1) were determined for T-cells from 5 patients in addition to the patients reported in Examples 1 and 2. The methods were the same as previously described in Example 1 or in Bernhardt et al 2006. In brief, PBMCs from various time points during vaccination were stimulated with the overlapping hTERT peptide library prior to testing for specific T-cell responses in proliferation assays.
The proliferative T-cell responses of each patient to a series of peptides were then determined as explained in Example 1. The results are tabulated in Table 5 and are shown graphically in FIG. 14 in which the peptide designations are referenced in Table 6 (the results for peptides 726 and GV1001 are shown only for comparison).
Four patients who were clinical non-responders following a lung cancer diagnosis and a GV1001 (SEQ ID NO. 10) peptide vaccination were studied. These patients were all stage IV lung cancer patients vaccinated with GV1001. […] The proliferative T-cell responses of each patient to a series of peptides were determined in the same manner as in Example 1, at one time point. The peak response of each patient during the study period to peptide GV1001 is also shown which confirms that each patient responded immunologically to GV1001 vaccination.
Six patients who were clinical non-responders following a melanoma cancer diagnosis and a GV1001 peptide (SEQ ID NO. 10) vaccination were studied. These patients were all stage IV melanoma patients and included in the same GV1001 vaccination trial as melanoma patients P7 and P8 who were long term survivors (see Example 6). […] Five of the patients also experienced progressive disease and one patient, designated Melanoma P3, experienced some stabilization of the disease but still had short survival. The proliferative T-cell responses of each patient to a series of peptides were determined in the same manner as in Example 1, at one time point. The peak response of each patient during the study period to peptide GV1001 is also shown which confirms that each patient responded immunologically to GV1001 vaccination.

[1] = test system: CD8+ T cells (patient PBMCs); test: Pentamer staining of hTERT-specific CD8+ T cells by flow cytometry; settings: patients of Examples 1 to 8
[2] = test system: T cells stimulated with peptide-loaded autologous EBV-LCL; test: Intracellular cytokine staining of peptide-stimulated T cells
CD4+ T-cell clones = test: Peptide-specific T-cell clones from patients (HLA class II allele, peptide titration); settings: for Specific clones: colon cancer
From the text: A value above 2 is considered as a positive response.
T-cell clones specific for all of the peptides of 15- or 30-amino acids shown in Table 1 have also been obtained from patients. […] This is important in order to be able to induce strong immune response in vivo where peptide concentrations are lower.
In addition, the 15- and 30-mer peptides listed in Table 1 show reactivity in nearly all patients tested, which means they are promiscuous with respect to the HLA class II alleles on which they are presented and that they are applicable to nearly the whole population without any need for HLA-screening (see Table 2).

[3] = GV1001 vaccinated lung cancer patient

How did the T-cell response (T cells (patient PBMCs); [3]) turn out when “ALFSVLNYERARRPGLLGASVLGLDDIHRA [SEQ ID NO. 1]” was run?
Its T-cell response is “very strong responses”.

What about the “reactivity in cancer patients tested” value (T cells (patient PBMCs); cancer patients, mostly vaccinated) of the same sequence?
The value was “reactivity in nearly all the cancer patients tested”.

What about the “response of clinical non-responders” value (T cells (patient PBMCs); four stage IV lung cancer patients) of the same sequence?
The value was “very low or no response”.

What about the “T-cell response compared with the vaccine peptide GV1001” value (T cells (patient PBMCs); one patient vaccinated with GV1001, certain time points (FIG. 3)) of the same sequence?
Its value is “even stronger than to the vaccine peptide itself”.

And the “proliferative T-cell response (detected or not)” value (T cells (patient PBMCs); pancreas cancer patient vaccinated with DC/hTERT mRNA)?
The value was “Proliferative T-cell responses were detected”.

And the “proliferative T-cell response (SI)” value (T cells (patient PBMCs); patient Colon ca P1, GV1001-vaccinated, clinical responder)?
The value was 27.2.

What about the “proliferative T-cell response (SI)” value (T cells (patient PBMCs); patient Lung ca P1, GV1001-vaccinated, clinical non-responder, one time point) of the same sequence?
The value was 1.

What about the “proliferative T-cell response (SI)” value (T cells (patient PBMCs); patient Lung ca P2, GV1001-vaccinated, clinical non-responder, one time point) of the same sequence?
Its value is 1.1.

What about the “proliferative T-cell response (SI)” value (T cells (patient PBMCs); patient Lung ca P3, GV1001-vaccinated, clinical non-responder, one time point) of the same sequence?
Its value is 0.9.

What about the “proliferative T-cell response (SI)” value (T cells (patient PBMCs); patient Lung ca P4, GV1001-vaccinated, clinical non-responder, one time point) of the same sequence?
The value was 1.5.

And the “proliferative T-cell response (SI)” value (T cells (patient PBMCs); patient Lung ca P5, GV1001-vaccinated, clinical responder)?
Its value is 44.5.

What about the “proliferative T-cell response (SI)” value (T cells (patient PBMCs); patient Lung ca P6, DC/hTERT mRNA-vaccinated, clinical responder, high background) of the same sequence?
Its value is 2.5.

What about the “proliferative T-cell response (SI)” value (T cells (patient PBMCs); patient Melanoma P1, GV1001-vaccinated, clinical non-responder, one time point) of the same sequence?
The value was 1.6.

And the “proliferative T-cell response (SI)” value (T cells (patient PBMCs); patient Melanoma P2, GV1001-vaccinated, clinical non-responder, one time point)?
Its value is 5.3.

And the “proliferative T-cell response (SI)” value (T cells (patient PBMCs); patient Melanoma P3, GV1001-vaccinated, clinical non-responder, one time point)?
The value was 0.3.

And the “proliferative T-cell response (SI)” value (T cells (patient PBMCs); patient Melanoma P4, GV1001-vaccinated, clinical non-responder, one time point)?
The value was 1.

What about the “proliferative T-cell response (SI)” value (T cells (patient PBMCs); patient Melanoma P5, GV1001-vaccinated, clinical non-responder, one time point) of the same sequence?
Its value is 1.9.

What about the “proliferative T-cell response (SI)” value (T cells (patient PBMCs); patient Melanoma P6, GV1001-vaccinated, clinical non-responder, one time point) of the same sequence?
Its value is 1.8.

What about the “proliferative T-cell response (SI)” value (T cells (patient PBMCs); patient Melanoma P7, GV1001-vaccinated, clinical responder) of the same sequence?
Its value is 44.5.

And the “proliferative T-cell response (SI)” value (T cells (patient PBMCs); patient Melanoma P8, GV1001-vaccinated, clinical responder)?
The value was 5.7.

And the “proliferative T-cell response (SI)” value (T cells (patient PBMCs); patient Melanoma P9, non-vaccinated, spontaneous response)?
Its value is 6.9.

What about the “proliferative T-cell response (SI)” value (T cells (patient PBMCs); patient Pancreas ca P1, DC/hTERT mRNA-vaccinated, clinical responder, high background) of the same sequence?
The value was 17.1.

And the “immunological responses in clinical responders” value (T cells (patient PBMCs); patients responding / 7 clinical responders)?
The value was 7/7.

What about the “immunological responses in clinical non-responders” value (T cells (patient PBMCs); patients responding / 10 clinical non-responders) of the same sequence?
The value was 1/10.

What about the “response of clinical non-responders” value (T cells (patient PBMCs); six stage IV melanoma patients) of the same sequence?
The value was “very low or no response”.

And the “patients with CTL responses shown by pentamer analysis” value [1]?
Its value is “Several”.

What about the “CD8+ T cell population after stimulation with peptide-loaded versus non-peptide loaded targets” value ([2]; pancreas cancer patient (data not shown)) of the same sequence?
The value was “no difference in the CD8+ T cell population”.

What about the “CD4+ T cells secreting IFN-γ, IL-4 and TNF-α” value ([2]; pancreas cancer patient, one round of in vitro stimulation, autologous EBV-transformed B-cells loaded with same peptide) of the same sequence?
The value was “small population of multifunctional CD4+ T cells”.

What about the “T-cell clones derived from the culture with the peptide that were specific” value (CD4+ T-cell clones; [3]) of the same sequence?
Its value is 75%.

And the Specific clones (CD4+ T-cell clones; HLA class II allele DR*07, specificity printed as 'Part of 660-689', 1 patient, Schroers et al, 2003)?
The Specific clones was 3.

And the Specific clones (CD4+ T-cell clones; HLA class II allele DR*14, 2 patients, lung cancer)?
Its Specific clones is 6 clones.

Reference: patent US11998595B2, “Telomerase polypeptide vaccine for treating cancer” (Ultimovacs AS, priority 2010, dated 2024)
